Consider 2 compounds from US20240299388A1, “ERK1/2 AND SHP2 INHIBITORS COMBINATION THERAPY” (Erasca, Inc., priority 2021, published 2024).

The test system of experiment [1] is KRAS G12V NSCLC CDX model NCI-H441. Kind of experiment: In vivo CDX xenograft efficacy, NCI-H441. Also noted: species or system Balb/c nude mice. The conditions noted are these: oral. How it is done: (§1) The vehicle/control article, 0.5% Methyl Cellulose & 0.1% Tween 80 or 100 mM acetic acid in deionized water with pH adjustment to 4.8-5.0, was prepared and stored under ambient conditions throughout the study period.
(§2) The test article, compound 1, was freshly prepared in vehicle of 0.5% Methyl Cellulose & 0.1% Tween 80 weekly and stored under ambient conditions. The combination agent, compound 2, was freshly prepared in vehicle of 100 mM acetic buffer weekly and stored under ambient conditions.
(§3) Female Balb/c nude mice were purchased from the Beijing Vital River Laboratory Animal Technology Co., Ltd. Mice were hosted at special pathogen-free (SPF) environment of vivarium facility and acclimated to their new environment for at least 3 days prior to initiation of any experiments. Mice were between 6-8 weeks of age at the time of implantation.
NCI-H441 is a human NSCLC cell line that harbors a KRAS^G12V mutation. The NCI-H441 cell line was purchased from the American Type Culture Collection (ATCC® HTB-174™). NCI-H441 cells were cultured in medium containing RPMI-1640 plus 10% Fetal Bovine Serum (FBS), at 37° C. in an atmosphere of 5% CO2 in air. NCI-H441 cells in 200 μL cell suspensions containing 5×10^6 cells mixed with 50% Matrigel were implanted into mice subcutaneously. When tumor volumes reached a mean of 200 mm^3, tumor-bearing mice were randomized into different groups with 8 mice in each group and treatment started on the day of randomization.
(§4) Mice were dosed by oral administration of vehicle control solution, compound 1, or compound 2 in monotherapy treatment groups. Mice were dosed by oral administration of combinations, including compound 1 with compound 2. The dosing volume was 5 mL/kg for each compound and interval of BID regimen was 8 hours. In the combination of compound 1 with compound 2, compound 1 was dosed at one-hour post compound 2 QD or first BID dose. […] The study was terminated at the end of 4-week treatment or when tumor volume in vehicle control group reached 2,000 mm^3.

Experiment [2] deals with KRAS G12A NSCLC CDX model NCI-H2009. Kind of experiment: In vivo CDX xenograft efficacy, NCI-H2009. Also noted: species or system Balb/c nude mice. The conditions noted are these: oral. How it is done:
as §1, §2, §3
NCI-H2009 is a human NSCLC cell line that harbored a KRAS^G12A mutation. The NCI-H2009 cell line was purchased from the American Type Culture Collection (ATCC® CRL-5911). NCI-H2009 cells were cultured in medium containing RPMI-1640 plus 10% Fetal Bovine Serum (FBS) and supplemented with Glutamax and pyruvate at 37° C. in an atmosphere of 5% CO2 in air. NCI-H2009 cells in 100 μL cell suspensions containing 5×10^6 cells mixed with 50% Matrigel were implanted into mice subcutaneously. When tumor volumes reached a mean of 200 mm^3, tumor-bearing mice were randomized into different groups with 8 mice in each group and treatment started on the day of randomization.
as §4

For the compound `Cc1cnc(NC2CCOCC2)nc1-n1cnc(C(=O)N[C@H](CN)c2cc(F)cc(Cl)c2)c1` [Compound 1, (S)—N-(2-amino-1-(3-chloro-5-fluorophenyl)ethyl)-1-(5-methyl-2-((tetrahydro-2H-pyran-4-yl)amino)pyrimidin-4-yl)-1H-imidazole-4-carboxamide], the TGI is 115% in experiment [1] (monotherapy 30 mg/kg BID), 94% in experiment [1] (monotherapy 30 mg/kg QD) and 93% in experiment [2] (monotherapy 30 mg/kg BID).
`COCOC[C@H]1C[C@H]2COc3c(Sc4cnc(N5CCC6(CC5)CO[C@@H](C)[C@H]6N)c(CO)n4)ccnc3N2C1` [Compound 2, (3-((3S,4S)-4-amino-3-methyl-2-oxa-8-azaspiro[4.5]decan-8-yl)-6-(((6aS,8S)-8-((methoxymethoxy)methyl)-6a,7,8,9-tetrahydro-6H-pyrido[3,2-b]pyrrolo[1,2-d][1,4]oxazin-4-yl)thio)pyrazin-2-yl)methanol]: the TGI in experiment [1] (monotherapy 15 mg/kg QD) turned out to be 87%; in experiment [1] (monotherapy 30 mg/kg QD) it was 101%; in experiment [2] (monotherapy 15 mg/kg QD) it was 73%; in experiment [2] (monotherapy 30 mg/kg QD), 90%.
